Results reported in ChEMBL document CHEMBL1201862, “PubChem BioAssay data set” (2004).
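Grown in 96-well plates, cells were treated for 48 hours with each compound at five concentrations. Insufficient inhibition: endpoint recorded as highest concentration tested. GI50 = concentration required for 50% inhibition of growth.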 Active and inactive are the calls of the source. Rule as the data show it: active = GI50 up to about 1.1 µM and inactive = higher.

Legend:
Test in all cases: NCI-60 cell line screen, 48 h
[1] = tested on: NCI-H522
[2] = tested on: SK-OV-3
[3] = tested on: SNB-75
[4] = tested on: SW-620
[5] = tested on: Malme-3M
[6] = tested on: HCT-116
[7] = tested on: MDA-MB-231
[8] = tested on: SN12C
[9] = tested on: UACC-257
[10] = tested on: OVCAR-4
[11] = tested on: M14
[12] = tested on: BT-549
[13] = tested on: HOP-92
[14] = tested on: A498
[15] = tested on: SF-539
[16] = tested on: UACC-62
[17] = tested on: PC-3
[18] = tested on: SK-MEL-5
[19] = tested on: CAKI-1
[20] = tested on: SR

Measured: GI50

COc1ccc(C2=C(N)c3c(Cl)cccc3C2=O)cc1
inactive: [1] > 100 µM | [2] 55.3 µM | [3] > 100 µM | [4] > 100 µM | [5] > 100 µM | [6] 83.9 µM | [7] 80.2 µM | [8] > 100 µM | [9] > 100 µM | [10] > 100 µM | [11] > 100 µM | [12] > 100 µM | [13] 34.9 µM | [14] > 100 µM | [15] > 100 µM | [16] > 100 µM | [17] > 100 µM | [18] > 100 µM | [19] > 100 µM

COc1cc(C2C3=C(N=C4SC(C(C)=O)=C(C)N42)c2ccccc2CC3)cc(OC)c1OC (stereo not drawn)
inactive: [2] > 100 µM | [3] 53.7 µM | [4] > 100 µM | [6] > 100 µM | [7] 49.2 µM | [8] > 100 µM | [9] > 100 µM | [10] > 100 µM | [11] > 100 µM | [12] > 100 µM | [13] > 100 µM | [14] > 100 µM | [15] > 100 µM | [16] > 100 µM | [17] > 100 µM | [18] 41.8 µM

CCCNC(C#N)c1ccc(C(C#N)NCCC)cc1 (stereo not drawn)
inactive: [1] > 100 µM | [2] > 100 µM | [4] > 100 µM | [5] > 100 µM | [6] 40.3 µM | [7] > 100 µM | [8] > 100 µM | [9] > 100 µM | [10] > 100 µM | [11] > 100 µM | [12] > 100 µM | [13] 45.4 µM | [14] > 100 µM | [15] > 100 µM | [16] > 100 µM | [17] > 100 µM | [18] > 100 µM | [19] > 100 µM

Oc1ccc(C(=C(Br)c2ccccc2)c2ccc(O)cc2)cc1
inactive: [1] 4.47 µM | [2] 5.01 µM | [4] 3.57 µM | [5] 5.52 µM | [6] 4.25 µM | [7] 10.9 µM | [8] 5.92 µM | [9] 12.6 µM | [10] > 10 µM | [11] 4.15 µM | [12] 4.44 µM | [13] 10 µM | [14] 18.3 µM | [15] 6.18 µM | [16] 8.47 µM | [17] 7.16 µM | [18] 3.47 µM | [19] 16.6 µM

N#Cc1c(-c2ccc([N+](=O)[O-])cc2)c(C#N)c(=O)n(NS(=O)(=O)c2ccccc2)c1O
inactive: [1] > 100 µM | [2] > 100 µM | [4] > 100 µM | [5] > 100 µM | [6] > 100 µM | [7] > 100 µM | [8] > 100 µM | [9] > 100 µM | [10] > 100 µM | [11] > 100 µM | [12] > 100 µM | [13] > 100 µM | [14] > 100 µM | [15] > 100 µM | [16] > 100 µM | [17] > 100 µM | [18] > 100 µM | [19] > 100 µM

CC(C)=CCc1c(O)c(CC2=C(O)C(CC=C(C)C)(C(=O)C(C)C)C(O)=C(C)C2=O)c(O)c(C(=O)C(C)C)c1O (stereo not drawn)
inactive: [1] 6.55 µM | [2] 18.8 µM | [3] 13.6 µM | [4] 24 µM | [5] 8.02 µM | [6] 3.05 µM | [7] 17 µM | [8] 18.8 µM | [9] 11.5 µM | [10] 15.8 µM | [11] 11.4 µM | [12] 11.6 µM | [13] 5.07 µM | [14] 9.57 µM | [15] 13.8 µM | [16] 7.98 µM | [17] 5.66 µM | [18] 7.87 µM | [19] 17.5 µM

CC(=O)[C@H]1CC[C@@H]2[C@]1(C)CC=C1[C@]23C=C[C@]2(C[C@@H](O)CC[C@]12C)C(C(=O)O)C3C(=O)O (stereo partly drawn)
inactive: [1] > 100 µM | [2] > 100 µM | [3] > 100 µM | [4] > 100 µM | [5] > 100 µM | [6] > 100 µM | [7] > 100 µM | [8] > 100 µM | [9] > 100 µM | [10] > 100 µM | [11] > 100 µM | [12] > 100 µM | [13] > 100 µM | [14] > 100 µM | [15] > 100 µM | [16] > 100 µM | [17] > 100 µM | [18] > 100 µM | [19] > 100 µM

CC1(C)C=CC(=O)C(O)C(C)(C)C1=O (stereo not drawn)
inactive: [1] 19.9 µM | [2] > 100 µM | [3] 38.7 µM | [4] 77.6 µM | [5] 17.5 µM | [6] 54.5 µM | [7] > 100 µM | [8] > 100 µM | [9] 18.8 µM | [10] > 100 µM | [11] > 100 µM | [12] 68.1 µM | [13] 92.7 µM | [14] > 100 µM | [15] 73.6 µM | [16] 52.8 µM | [17] > 100 µM | [18] > 100 µM | [19] > 100 µM

CCOP(=O)(OCC)C(Nc1ccc(C(=O)O)cc1)c1ccc(C(Nc2ccc(C(=O)O)cc2)P(=O)(OCC)OCC)cc1 (stereo not drawn)
inactive: [1] > 100 µM | [2] > 100 µM | [3] > 100 µM | [4] > 100 µM | [5] > 100 µM | [6] > 100 µM | [7] > 100 µM | [9] > 100 µM | [10] > 100 µM | [11] > 100 µM | [12] > 100 µM | [13] > 100 µM | [14] > 100 µM | [16] > 100 µM | [17] > 100 µM | [18] > 100 µM | [19] > 100 µM

O=C1C(N2CCNCC2)=C(Cl)C(=O)c2ncccc21
inactive: [2] > 10 µM | [3] > 10 µM | [4] 3.72 µM | [5] > 10 µM | [6] 1.86 µM | [7] > 10 µM | [8] > 10 µM | [9] > 10 µM | [10] > 10 µM | [11] > 10 µM | [12] > 10 µM | [13] 3.25 µM | [15] > 10 µM | [20] > 10 µM | [16] > 10 µM | [17] > 10 µM | [18] 5.79 µM | [19] > 10 µM

Cc1ccnn1CCc1ccc(Cl)cc1Cl
inactive: [2] 65.9 µM | [3] 14.5 µM | [4] 54.8 µM | [5] 30.1 µM | [6] 47.5 µM | [7] 29.3 µM | [8] 11.8 µM | [9] 34.4 µM | [10] 11.7 µM | [11] 24.4 µM | [12] 13.6 µM | [15] 18.2 µM | [20] 21.9 µM | [16] 8.73 µM | [17] 27 µM | [18] 19 µM | [19] 28.1 µM
